Source: patent US10725042B2, “Methods of diagnosing and treating cancer” (Case Western Reserve University, priority 2012, dated 2020)

Columns and labels:
[1] = tested on: cell culture; test: Tolerance of MX in cell culture; assay type: cell-based; conditions: MX at 3 mM
[2] = tested on: H1975 66 shUNG cells; test: Colony survival assay, H1975 66 shUNG cells; assay type: cell-based, human
Method: (§1) For cells in suspension, colony survival was determined by crystal violet staining of colonies formed after 10-day exposure of 5×10^3 cells to pemetrexed in soft agar. For adherent cells, colony survival was determined by methylene blue staining of colonies formed after 10-day exposure of 100 cells to pemetrexed in 6-well culture dishes. Only colonies containing ≥50 cells were counted. Data points represent percent of colonies relative to untreated control averaged over 3 experiments.
UNG directed shRNA and siRNA plasmids were purchased from Origene. Transfection was carried out according to manufacturer specifications. Stably transfected clones (shRNA) were selected with puromycin with subsequent expansion of a well-isolated colony of cells.

[3] = tested on: H1299/PR-1 cells; test: Colony survival assay, H1299/PR-1 pemetrexed-resistant subline; assay type: cell-based, human; conditions: PR-1 and PR-2 cells
Method: as §1
H1299 cells were exposed to step-wise increasing concentrations of pemetrexed over a period of 4 months. UNG expression was monitored in the bulk population at 2, 8, 12 and 16 weeks prior to administration of the induction dosage and at 24 weeks in a population of bulk chronically exposed cells that had been without pemetrexed for 8 weeks. H1299 cells capable of growth in 50 nM pemetrexed selection pressure were subcloned by limiting dilution in 96 well plates. Independent sublines were designated H1299/PR-1 and H1299/PR-2.

[4] = tested on: 293t cells expressing the bacteriophage UNG inhibitor Ugi; conditions: treated 293t cells expressing Ugi; cited from earlier work
[5] = tested on: DLD1/UDG−/− cells; test: Colony survival (clonogenic) assay, UDG−/− cells; assay type: cell-based, human; conditions: 5-FU 0-20 μM, temozolomide 0-1500 μM, cisplatin 0-40 μM
Method: Recombinant virus was grown in 293T cells and subsequently used to infect DLD1 cells. Selection of positively transfected clones was achieved by the addition of G418 to the culture medium. A second infection of transfected clones with Cre-recombinase adenovirus caused excision of the neomycin resistance cassette. Dflag cell line was produced by transfection of UDG expression vector in UDG^−/− cells to restore UDG activity.
Tumor cells (500-2000/dish) were plated and treated with pemetrexed (0-400 nM), 5-fluorouracil (0-20 μM), temozolomide (0-1500 μM), or cisplatin (0-40 μM). After 7 days, surviving colonies were stained with methylene blue for 30 min at room temperature and the colonies containing more than 50 cells were counted to generate survival curves.

[6] = tested on: UNG−/− MEFs; conditions: treated UNG−/− MEFs; cited from earlier work
[7] = tested on: uracil in DNA of UDG−/− cells; test: Uracil in DNA by HPLC/MS/MS, UDG−/− cells; assay type: cell-based, human; conditions: UDG−/− cells; drug 10 μM, 6-72 hr
Method: UDG^−/− and UDG^+/+ cells were exposed to pemetrexed (10 μM) or 5-fluorouracil (10 μM) for 6, 24, 48 and 72 hrs. At indicated time points, cells were harvested and genomic DNA was extracted by phenol/chloroform. Forty μg of DNA were incubated with 10 U of purified UDG (New England Biolabs) in 60 μL of reaction buffer at 37° C. for 2 hrs. The reaction products were dried at 35° C. in a Turbovap under a stream of nitrogen and reconstituted in 150 μL 90% acetonitrile. The analyte was retained by an Atlantis Hilis Silica analytical column (2.1×100 mm, 3.5 μM) and eluted isocratically by a mixture of 90% acetonitrile and 10% 2.0 mM ammonium formate at a flow rate of 0.2 ml/min. The detection was done by an API 3200 MS/MS mass spectrometer.

CON [MX, methoxyamine]
tolerance in cell culture [1]: well tolerated

Cc1nc2ccc(CN(C)c3ccc(C(=O)N[C@@H](CCC(=O)O)C(=O)O)s3)cc2c(=O)[nH]1 [raltitrexed]
cross sensitivity of UNG deficient H1975 cells [2]: some cross sensitivity
cross-resistance of PR-1 and PR-2 cells [3]: cross-resistance
increase in uracil [4]: 8 fold

Cc1cn([C@H]2C[C@H](O)[C@@H](CO)O2)c(=O)[nH]c1=O [thymidine]
effect of supplemental thymidine on pemetrexed sensitivity ([2]; H1975 shUNG cells, 10 μM thymidine): rescued pemetrexed sensitivity

N.N.[Cl][Pt][Cl] [cisplatin]
cross sensitivity of UNG deficient H1975 cells [2]: not
differential sensitivity of UDG−/− vs UDG+/+ cells [5]: no significant differential sensitivity
cross-resistance of PR-1 and PR-2 cells [3]: not resistant

O=c1[nH]c(=O)n([C@H]2C[C@H](O)[C@@H](CO)O2)cc1F [FdUrd]
increase in uracil [6]: 1.5 fold

O=c1[nH]cc(F)c(=O)[nH]1 [5-FU, 5-fluorouracil]
increase in uracil [6]: 1.5 fold
uracil detected in DNA [7]: greater retention of uracil
cross sensitivity of UNG deficient H1975 cells [2]: some cross sensitivity
differential sensitivity of UDG−/− vs UDG+/+ cells [5]: more sensitive
cross-resistance of PR-1 and PR-2 cells [3]: cross-resistance
